Reference: the supplement of paper PMC10307832

Experiments:
Assay in all cases: relative viability (nuclei count vs DMSO), 5 days (fraction); higher = more cells survive
[1] = compound: CC1(C)CNc2cc(NC(=O)c3cccnc3NCc3ccncc3)ccc21 [Motesanib] + CC1(C)CCC(c2ccc(Cl)cc2)=C(CN2CCN(c3ccc(C(=O)NS(=O)(=O)c4ccc(N[C@H](CCN5CCOCC5)CSc5ccccc5)c(S(=O)(=O)C(F)(F)F)c4)cc3)CC2)C1 [Navitoclax] (partner 0.5 µM)
How it was run: (§1)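 One day after seeding in 1536-well plates, lung cancer cell lines were dosed by pin tool. Dosing was either single-drug or a fixed anchor-drug dose plus five library-drug doses (not always all listed) in √10 steps. After 5 days, nuclei were stained in one fix-and-stain step and counted on 4× images, and relative viability is the nuclei count of treated wells over that of vehicle wells, given as the median of duplicate plates.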

[2] = compound: CC1(C)CNc2cc(NC(=O)c3cccnc3NCc3ccncc3)ccc21 [Motesanib] + C[C@]1(O)C[C@@H](c2nc(-c3ccc4ccc(-c5ccccc5)nc4c3)c3c(N)nccn32)C1 [Linsitinib] (partner 1 µM)
How it was run: as §1

[3] = compound: CC1(C)CNc2cc(NC(=O)c3cccnc3NCc3ccncc3)ccc21 [Motesanib] + O=C(c1cc(Cc2n[nH]c(=O)c3ccccc23)ccc1F)N1CCN(C(=O)C2CC2)CC1 [Olaparib] (partner 8 µM)
How it was run: as §1

[4] = compound: CC1(C)CNc2cc(NC(=O)c3cccnc3NCc3ccncc3)ccc21 [Motesanib] + CC(=O)c1c(C)c2cnc(Nc3ccc(N4CCNCC4)cn3)nc2n(C2CCCC2)c1=O [Palbociclib] (partner 0.5 µM)
How it was run: as §1

Cell Line: UMC-11
- relative viability ([1]; first compound 0.01 µM): 0.341
- relative viability ([1]; first compound 0.03162 µM): 0.312
- relative viability ([1]; first compound 0.1 µM): 0.31
- relative viability ([1]; first compound 0.3162 µM): 0.302
- relative viability ([1]; first compound 1 µM): 0.318
- relative viability ([2]; first compound 0.01 µM): 0.984
- relative viability ([2]; first compound 0.03162 µM): 0.985
- relative viability ([2]; first compound 0.1 µM): 1.04
- relative viability ([2]; first compound 0.3162 µM): 1
- relative viability ([2]; first compound 1 µM): 1.13
- relative viability ([3]; first compound 0.01 µM): 0.395
- relative viability ([3]; first compound 0.03162 µM): 0.356
- relative viability ([3]; first compound 0.1 µM): 0.367
- relative viability ([3]; first compound 0.3162 µM): 0.378
- relative viability ([3]; first compound 1 µM): 0.34
- relative viability ([4]; first compound 0.01 µM): 0.317
- relative viability ([4]; first compound 0.03162 µM): 0.302
- relative viability ([4]; first compound 0.1 µM): 0.314
- relative viability ([4]; first compound 0.3162 µM): 0.394
- relative viability ([4]; first compound 1 µM): 0.347
